Results reported in US20260083691A1, “TREATING CANCERS WITH COMBINATIONS OF ANTI-CD20 ANTIBODY AND ACYLFULVENES” (Lantern Pharma Inc., priority 2023, published 2026).

How the values were obtained:
[1] = test system: OCLLY1-derived tumor xenografts; test: LP-284 alone and with rituximab in OCLLY1 DLBCL/HGBL-MYC/BCL2 tumor xenografts in mice; assay type: in vivo; conditions: for tumor growth inhibition (TGI): day 24, NOD.SCID mice
Experimental: HRD genomic scars from 107 B-NHL patients in the Pan-Cancer Analysis of Whole Genomes (PCAWG) study were tested. At least 10% of B-NHL patients were likely HRD+, with approximately 90% of these cases being diffuse large B-cell lymphoma (DLBCL). […] The calculated bliss synergy score between LP-284 and Rituximab on day 24 is 10, indicating synergy.
LP-284's efficacy in DLBCL/HGBL-MYC/BCL2 xenograft models was evaluated. LP-284, vehicle (saline), and Rituximab were administered intravenously in OCLLY1-derived tumor xenografts in mice. All vehicle-treated mice were sacrificed by day 24 due to excessive tumor size.
LP-284 was tested for anti-tumor efficacy as a monotherapy and in combination with rituximab in OCI-LY 1 DLBCL/HGBL-MYC/BCL2 cell line-derived tumor xenografts in mice. Methods: OCLLY1 cells were implanted subcutaneously in NOD.SCID mice. The following treatments were initiated when the tumors reached a volume of >100 mm3: vehicle (saline, administered intravenously on days 1, 8, and 15 in a 28-day cycle), 2 mg/kg or 4 mg/kg LP-284 (administered intravenously on days 1, 8, and 15 in a 28-day cycle), 10 mg/kg rituximab (administered intravenously on days 1 and 15 in a 28-day cycle), 2 mg/kg LP-284 and 10 mg/kg rituximab in combination. Four mice were used in each treatment group. Tumor Growth Inhibition (TGI) was calculated as % TGI=(1−((Tt/T0)/(Ct/C0)))/(1−(C0/Ct))*100 where Tt=mean tumor volume of treated at time t, TO=mean tumor volume of treated at time 0, Ct=mean tumor volume of control at time t, CO=mean tumor volume of control at time 0.

[2] = test system: B-cells (CD19+ or CD20+); test: B-cell reduction in immune-proficient mice, blood analyzed by flow cytometry; assay type: in vivo
Experimental: (§1) In this study, vehicle, LP-284 (4 mg/kg), and cyclophosphamide (25 mg/kg, a clinically relevant dose) were administered intravenously on days 1, 8, and 15, with three mice per treatment group. Blood samples were collected on Day 16 and analyzed by flow cytometry to quantify the B-cell populations.

[3] = Tolerability (body weight, gross necropsy) in immune-proficient mice; conditions: 4 mg/kg intravenously days 1, 8, 15
Experimental: as §1

In the case of CC1=C(CN(O)C(N)=O)C2=C(C)C3(CC3)[C@](C)(O)C(=O)C2=C1 [LP-284, (+)-hydroxyureamethyl acylfulvene], the “tumor growth inhibition (TGI)” value ([1]; 2 mg/kg LP-284 alone intravenously days 1, 8, 15) is reported as 57%, the “tumor growth inhibition (TGI)” value ([1]; 4 mg/kg LP-284 intravenously days 1, 8, 15) is reported as 99% and the tumor volume ([1]; by day 24, versus vehicle (saline), intravenous) is reported as “significantly reduced tumor volume”. For the same molecule, the “reduction of B-cells (CD19+ or CD20+)” value ([2]; iv, 4 mg/kg, 384 h) was “approximately 30%”, the body weight [3] was “normal body weight” and the gross necropsy findings [3] was “no abnormal findings”. The tolerability [3] was “well-tolerated”.

In the case of O=P1(N(CCCl)CCCl)NCCCO1 (centres unmarked) [cyclophosphamide, reference compound], the “reduction of B-cells (CD19+ or CD20+)” value ([2]; cyclophosphamide 25 mg/kg intravenously days 1, 8, 15, blood collected Day 16, immune-proficient mice) is reported as “comparable to the reduction achieved by cyclophosphamide”.
